What was measured:
[1] = target: T1, Myotonin-protein kinase (Homo sapiens) (UniProt Q09013); test: Inhibition of DMPK (unknown origin) assessed as remaining activity at 1 uM by Kinome scan method relative to control
T1 sequence (whole entry): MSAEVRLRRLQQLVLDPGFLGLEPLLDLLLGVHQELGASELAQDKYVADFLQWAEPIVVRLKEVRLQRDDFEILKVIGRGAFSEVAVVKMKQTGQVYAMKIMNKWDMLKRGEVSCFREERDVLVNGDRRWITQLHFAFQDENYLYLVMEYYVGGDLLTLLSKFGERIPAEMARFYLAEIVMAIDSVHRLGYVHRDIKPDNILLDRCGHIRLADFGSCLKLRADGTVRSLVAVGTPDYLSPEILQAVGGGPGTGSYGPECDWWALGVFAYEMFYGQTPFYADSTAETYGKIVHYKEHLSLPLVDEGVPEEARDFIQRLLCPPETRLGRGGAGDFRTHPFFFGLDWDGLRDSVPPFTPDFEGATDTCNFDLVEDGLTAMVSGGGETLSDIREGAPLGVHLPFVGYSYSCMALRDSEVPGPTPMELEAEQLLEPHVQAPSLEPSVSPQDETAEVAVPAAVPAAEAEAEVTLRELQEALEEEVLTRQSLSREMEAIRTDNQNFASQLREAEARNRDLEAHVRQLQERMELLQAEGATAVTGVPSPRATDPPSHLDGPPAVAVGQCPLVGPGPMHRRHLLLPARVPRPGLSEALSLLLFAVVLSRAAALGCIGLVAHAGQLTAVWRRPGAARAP

[2] = target: T2, MAP/microtubule affinity-regulating kinase 4 (Homo sapiens) (UniProt Q96L34); test: Inhibition of MARK4 (unknown origin) assessed as remaining activity at 1 uM by Kinome scan method relative to control
T2 sequence (whole entry): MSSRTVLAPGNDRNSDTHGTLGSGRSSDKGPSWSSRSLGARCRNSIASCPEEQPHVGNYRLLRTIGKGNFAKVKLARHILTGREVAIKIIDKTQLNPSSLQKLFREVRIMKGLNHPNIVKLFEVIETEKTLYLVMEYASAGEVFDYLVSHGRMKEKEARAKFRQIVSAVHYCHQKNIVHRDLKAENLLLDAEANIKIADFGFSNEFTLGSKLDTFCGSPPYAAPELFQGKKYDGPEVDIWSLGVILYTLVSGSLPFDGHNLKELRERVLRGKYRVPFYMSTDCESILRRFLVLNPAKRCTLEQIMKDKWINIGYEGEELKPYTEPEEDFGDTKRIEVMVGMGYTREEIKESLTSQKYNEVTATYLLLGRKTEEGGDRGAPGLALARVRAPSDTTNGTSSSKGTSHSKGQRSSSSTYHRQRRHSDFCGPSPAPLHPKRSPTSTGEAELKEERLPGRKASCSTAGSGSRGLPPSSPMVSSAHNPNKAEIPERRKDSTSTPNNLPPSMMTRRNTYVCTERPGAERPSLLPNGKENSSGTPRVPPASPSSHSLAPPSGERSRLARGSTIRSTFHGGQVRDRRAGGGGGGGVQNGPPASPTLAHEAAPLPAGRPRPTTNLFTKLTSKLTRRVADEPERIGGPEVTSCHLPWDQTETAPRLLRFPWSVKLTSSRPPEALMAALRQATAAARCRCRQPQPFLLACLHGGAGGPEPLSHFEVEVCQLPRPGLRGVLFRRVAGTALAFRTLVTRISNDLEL

[3] = target: T3, Serine/threonine-protein kinase TAO3 (Homo sapiens) (UniProt Q9H2K8); test: Inhibition of TAOK3 (unknown origin) assessed as remaining activity at 1 uM by Kinome scan method relative to control
T3 sequence (whole entry): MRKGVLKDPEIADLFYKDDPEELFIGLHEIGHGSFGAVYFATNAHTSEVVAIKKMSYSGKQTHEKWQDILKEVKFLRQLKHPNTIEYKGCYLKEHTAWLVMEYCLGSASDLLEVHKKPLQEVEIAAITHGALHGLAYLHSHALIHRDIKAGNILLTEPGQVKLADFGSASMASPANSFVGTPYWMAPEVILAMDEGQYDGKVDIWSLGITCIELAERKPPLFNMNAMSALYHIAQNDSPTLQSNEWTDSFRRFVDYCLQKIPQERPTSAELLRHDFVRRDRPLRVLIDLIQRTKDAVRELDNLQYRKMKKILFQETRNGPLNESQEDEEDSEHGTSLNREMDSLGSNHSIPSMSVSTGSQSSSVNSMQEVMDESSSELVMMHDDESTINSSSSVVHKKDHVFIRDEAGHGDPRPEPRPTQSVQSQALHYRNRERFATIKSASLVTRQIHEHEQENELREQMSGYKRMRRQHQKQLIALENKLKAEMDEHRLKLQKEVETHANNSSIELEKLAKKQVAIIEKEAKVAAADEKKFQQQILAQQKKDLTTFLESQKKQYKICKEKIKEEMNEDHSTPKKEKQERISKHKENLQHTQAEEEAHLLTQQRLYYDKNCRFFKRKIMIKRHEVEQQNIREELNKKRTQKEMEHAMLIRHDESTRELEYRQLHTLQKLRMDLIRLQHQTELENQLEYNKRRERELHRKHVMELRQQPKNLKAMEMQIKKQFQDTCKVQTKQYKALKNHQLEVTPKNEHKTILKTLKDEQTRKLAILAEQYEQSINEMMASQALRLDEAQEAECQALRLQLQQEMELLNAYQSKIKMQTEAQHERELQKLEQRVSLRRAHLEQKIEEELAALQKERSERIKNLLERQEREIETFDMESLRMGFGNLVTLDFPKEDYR

[4] = target: Dual specificity mitogen-activated protein kinase kinase 4 (Homo sapiens) (UniProt P45985); test: Inhibition of MEK4 (unknown origin) assessed as remaining activity at 1 uM by Kinome scan method relative to control
[5] = target: Serine/threonine-protein kinase STK11 (Homo sapiens) (UniProt Q15831); test: Inhibition of LKB1 (unknown origin) assessed as remaining activity at 1 uM by Kinome scan method relative to control
[6] = target: Death-associated protein kinase 2 (Homo sapiens) (UniProt Q9UIK4); test: Inhibition of DAPK2 (unknown origin) assessed as remaining activity at 1 uM by Kinome scan method relative to control
Death-associated protein kinase 2 (Homo sapiens), sequence (Q9UIK4 whole entry, looked up): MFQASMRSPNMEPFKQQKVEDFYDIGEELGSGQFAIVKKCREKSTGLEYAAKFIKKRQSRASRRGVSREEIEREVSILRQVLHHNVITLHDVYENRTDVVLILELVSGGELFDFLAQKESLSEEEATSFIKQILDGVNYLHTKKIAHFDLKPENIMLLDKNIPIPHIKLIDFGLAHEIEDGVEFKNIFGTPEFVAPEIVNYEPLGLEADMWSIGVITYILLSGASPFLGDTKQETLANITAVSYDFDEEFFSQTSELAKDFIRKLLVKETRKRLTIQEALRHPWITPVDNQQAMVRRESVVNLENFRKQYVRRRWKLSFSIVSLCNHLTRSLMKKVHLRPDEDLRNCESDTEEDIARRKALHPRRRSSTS

Dual specificity mitogen-activated protein kinase kinase 4 (Homo sapiens), sequence (P45985 whole entry): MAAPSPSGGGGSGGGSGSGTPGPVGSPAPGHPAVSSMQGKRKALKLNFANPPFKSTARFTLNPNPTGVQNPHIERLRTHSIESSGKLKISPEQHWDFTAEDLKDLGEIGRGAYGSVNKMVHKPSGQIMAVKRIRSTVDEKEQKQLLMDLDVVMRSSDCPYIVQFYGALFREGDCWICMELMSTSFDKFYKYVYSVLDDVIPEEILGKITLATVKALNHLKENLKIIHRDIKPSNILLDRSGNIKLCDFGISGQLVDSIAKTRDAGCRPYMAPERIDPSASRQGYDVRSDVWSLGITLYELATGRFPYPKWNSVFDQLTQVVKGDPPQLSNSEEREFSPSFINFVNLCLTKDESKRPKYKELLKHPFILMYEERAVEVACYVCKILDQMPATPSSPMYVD
Serine/threonine-protein kinase STK11 (Homo sapiens), sequence (Q15831 whole entry): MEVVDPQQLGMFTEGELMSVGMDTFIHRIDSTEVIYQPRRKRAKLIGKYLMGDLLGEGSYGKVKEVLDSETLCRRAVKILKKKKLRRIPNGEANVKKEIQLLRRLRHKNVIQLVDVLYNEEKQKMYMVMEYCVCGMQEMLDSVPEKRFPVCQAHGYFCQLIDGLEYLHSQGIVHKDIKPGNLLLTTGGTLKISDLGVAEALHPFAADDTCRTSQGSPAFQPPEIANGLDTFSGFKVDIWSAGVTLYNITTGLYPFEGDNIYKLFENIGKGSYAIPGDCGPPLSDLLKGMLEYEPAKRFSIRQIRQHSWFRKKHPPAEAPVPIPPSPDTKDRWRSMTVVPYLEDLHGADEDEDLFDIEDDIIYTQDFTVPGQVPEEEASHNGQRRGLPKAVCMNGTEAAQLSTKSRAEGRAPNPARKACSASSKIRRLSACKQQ

Row | Structure (SMILES) | Activity [1] [%] | Activity [2] [%] | Activity [3] [%] | Activity [4] [%] | Activity [5] [%] | Activity [6] [%]
1 | Nc1ccccc1Nc1ccc2c(c1)CCc1ccccc1C2=O | 93 | 90 | 99 | 64 | 98 | 99
2 | O=C1c2ccc(Nc3ccc(F)cc3F)cc2CCc2ccc(OC[C@H](O)CO)cc21 [Skepinone-L] | 76 | 100 | 100 | 78 | 100 | 93
